Experimental data: publication PMC3914206

Assays:
Type in all cases: binding
Details in all cases: Compound Concentration 10 µM
panel of 442 kinases [1] = molecular target: T1, panel of 442 kinases (Homo sapiens, UniProt O94768)
T1 construct: purchased KINOMEscan
T1 sequence (O94768 1-372): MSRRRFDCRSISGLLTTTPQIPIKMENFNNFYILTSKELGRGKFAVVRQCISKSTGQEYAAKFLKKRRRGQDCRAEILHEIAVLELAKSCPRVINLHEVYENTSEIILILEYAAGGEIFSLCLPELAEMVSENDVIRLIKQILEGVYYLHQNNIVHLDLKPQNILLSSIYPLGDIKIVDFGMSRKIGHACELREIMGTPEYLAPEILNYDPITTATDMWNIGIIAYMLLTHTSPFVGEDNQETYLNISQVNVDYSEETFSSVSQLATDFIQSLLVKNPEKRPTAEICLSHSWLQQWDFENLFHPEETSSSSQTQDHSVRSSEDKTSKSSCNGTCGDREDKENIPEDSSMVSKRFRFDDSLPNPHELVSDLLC
From the text: (§1) We assessed the selectivity of members of this scaffold using the KINOMEscan methodology across a near comprehensive panel of 442 kinases [[18,27]].

panel of 442 kinases [2] = molecular target: T2, panel of 442 kinases (Homo sapiens, UniProt Q05655)
T2 construct: purchased KINOMEscan
T2 sequence (Q05655 whole entry): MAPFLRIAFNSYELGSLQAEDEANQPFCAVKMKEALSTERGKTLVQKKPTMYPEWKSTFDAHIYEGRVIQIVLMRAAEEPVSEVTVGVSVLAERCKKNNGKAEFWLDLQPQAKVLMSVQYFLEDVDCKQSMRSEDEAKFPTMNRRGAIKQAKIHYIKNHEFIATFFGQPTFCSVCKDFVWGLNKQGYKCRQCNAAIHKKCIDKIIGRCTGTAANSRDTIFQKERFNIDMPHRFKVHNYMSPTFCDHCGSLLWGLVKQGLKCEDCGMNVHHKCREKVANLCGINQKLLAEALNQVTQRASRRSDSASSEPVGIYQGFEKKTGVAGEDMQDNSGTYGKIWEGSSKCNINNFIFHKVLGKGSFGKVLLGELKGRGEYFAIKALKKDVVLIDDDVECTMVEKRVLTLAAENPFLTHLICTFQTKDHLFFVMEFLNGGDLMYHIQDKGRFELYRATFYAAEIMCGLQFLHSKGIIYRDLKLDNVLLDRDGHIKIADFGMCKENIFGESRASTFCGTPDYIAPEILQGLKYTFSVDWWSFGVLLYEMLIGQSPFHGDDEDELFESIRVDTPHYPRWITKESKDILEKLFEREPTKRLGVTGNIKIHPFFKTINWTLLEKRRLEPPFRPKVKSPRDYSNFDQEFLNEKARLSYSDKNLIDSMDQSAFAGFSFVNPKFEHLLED
From the text: as §1

panel of 442 kinases [3] = molecular target: T3, panel of 442 kinases (Homo sapiens, UniProt P42336, Q546K)
T3 construct: purchased KINOMEscan
T3 sequence (P42336 whole entry Q546K): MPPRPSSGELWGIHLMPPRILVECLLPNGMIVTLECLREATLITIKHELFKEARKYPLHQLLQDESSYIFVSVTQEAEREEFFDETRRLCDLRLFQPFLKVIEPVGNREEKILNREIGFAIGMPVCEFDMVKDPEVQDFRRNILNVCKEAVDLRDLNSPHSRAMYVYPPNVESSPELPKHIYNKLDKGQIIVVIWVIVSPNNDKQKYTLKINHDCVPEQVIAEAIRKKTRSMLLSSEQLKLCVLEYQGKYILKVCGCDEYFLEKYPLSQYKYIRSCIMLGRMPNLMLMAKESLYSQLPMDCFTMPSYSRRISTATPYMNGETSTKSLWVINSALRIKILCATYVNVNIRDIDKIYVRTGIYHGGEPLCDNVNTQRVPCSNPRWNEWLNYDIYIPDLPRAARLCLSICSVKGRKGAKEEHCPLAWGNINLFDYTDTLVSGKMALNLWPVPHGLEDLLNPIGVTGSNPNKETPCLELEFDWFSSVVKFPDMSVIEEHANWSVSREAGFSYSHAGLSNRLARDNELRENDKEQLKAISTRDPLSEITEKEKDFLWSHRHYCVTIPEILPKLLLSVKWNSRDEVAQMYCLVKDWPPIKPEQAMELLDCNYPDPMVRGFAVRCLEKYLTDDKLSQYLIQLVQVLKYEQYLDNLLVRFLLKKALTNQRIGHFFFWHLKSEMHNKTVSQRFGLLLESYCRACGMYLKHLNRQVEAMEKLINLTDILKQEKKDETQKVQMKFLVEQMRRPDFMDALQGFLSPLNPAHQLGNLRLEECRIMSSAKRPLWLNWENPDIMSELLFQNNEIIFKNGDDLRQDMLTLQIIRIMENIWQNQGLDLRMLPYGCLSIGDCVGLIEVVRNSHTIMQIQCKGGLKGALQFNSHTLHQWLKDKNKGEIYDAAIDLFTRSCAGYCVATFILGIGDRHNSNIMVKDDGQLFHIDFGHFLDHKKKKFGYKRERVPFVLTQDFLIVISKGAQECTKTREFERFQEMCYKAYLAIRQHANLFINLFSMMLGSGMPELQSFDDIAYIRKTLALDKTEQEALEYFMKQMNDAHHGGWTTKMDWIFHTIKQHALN
From the text: as §1

SMILES	KINOMEscan: DRAK2 (panel of 442 kinases [1])	KINOMEscan: PRKCD (panel of 442 kinases [2])	KINOMEscan: PIK3CA(Q546K) (panel of 442 kinases [3])
CCOc1cc(C(=O)N2CCC(N3CCN(C)CC3)CC2)ccc1Nc1ncc2c(n1)N(C1CCCC1)c1ccccc1C(=O)N2C [Compound 26]	100	100	99
COc1cc(C(=O)N2CCC(N3CCN(C)CC3)CC2)ccc1Nc1ncc2c(n1)N(C1CCCC1)c1ccccc1C(=O)N2C [Compound 25, 11-cyclopentyl-2-((2-methoxy-4-(4-(4-methylpiperazin-1-yl)piperidine-1-carbonyl)phenyl)amino)-5-methyl-5H-benzo[e]pyrimido[5,4-b][1,4]diazepin-6(11H)-one]	100	100	100
COc1cc(C(=O)N2CCC(N3CCN(C)CC3)CC2)ccc1Nc1ncc2c(n1)N1CCc3cccc(c31)C(=O)N2C [Compound 24]		67	98
COc1cc(C(=O)N2CCC(N3CCN(C)CC3)CC2)ccc1Nc1ncc2c(n1)N(C)c1ccccc1C(=O)N2C [15 (LRRK2-IN-1)]	93	75	91
